From ChEMBL document CHEMBL5226326, “Discovery of 1-Benzoyl 4-Phenoxypiperidines as Small-Molecule Inhibitors of the β-Catenin/B-Cell Lymphoma 9 Protein-Protein Interaction” (J Med Chem, 2021)
Values belong to the compound of their own block, whether it stands above or below them. Activity calls are given as the source filed them. The rule behind the calls is not given here.

Experiments:
[1] = species: Homo sapiens; assay: Selectivity ratio, ratio of Ki for inhibition of full length beta-catenin (1 to 781 residues) (unknown origin) expressed in Escherichia coli BL21 (DE3)/N-terminal biotinylated human BCL9 HD2 (350 to 375 residues) protein-protein interaction to Ki for inhibition of full length beta-catenin (1 to 686 residues) (unknown origin) expressed in Escherichia coli BL21 (DE3)/N-terminal biotinylated human E-cadherin (824 to 877 residues) protein-protein interaction
[2] = molecular target: T1, beta-catenin-B-cell lymphoma 9 protein complex (Homo sapiens) (UniProt P35222+O00512); assay: Inhibition of beta-catenin/BCL9 protein-protein interaction in human HCT-116 cells at 1 to 12.5 uM incubated for 24 hr by Co-immunoprecipitation assay; format: cell-based; details: dose 1-12.5 µM
[3] = molecular target: Catenin beta-1/Cadherin-1 (Homo sapiens) (UniProt P35222+P12830); assay: Inhibition of beta-catenin/E-cadherin protein-protein interaction in human HCT-116 cells at 1 to 12.5 uM incubated for 24 hr by Co-immunoprecipitation assay; format: cell-based; details: dose 1-12.5 µM
Chain of Catenin beta-1/Cadherin-1 (Homo sapiens) (P12830 155-882 partner limits assumed, one chain of several): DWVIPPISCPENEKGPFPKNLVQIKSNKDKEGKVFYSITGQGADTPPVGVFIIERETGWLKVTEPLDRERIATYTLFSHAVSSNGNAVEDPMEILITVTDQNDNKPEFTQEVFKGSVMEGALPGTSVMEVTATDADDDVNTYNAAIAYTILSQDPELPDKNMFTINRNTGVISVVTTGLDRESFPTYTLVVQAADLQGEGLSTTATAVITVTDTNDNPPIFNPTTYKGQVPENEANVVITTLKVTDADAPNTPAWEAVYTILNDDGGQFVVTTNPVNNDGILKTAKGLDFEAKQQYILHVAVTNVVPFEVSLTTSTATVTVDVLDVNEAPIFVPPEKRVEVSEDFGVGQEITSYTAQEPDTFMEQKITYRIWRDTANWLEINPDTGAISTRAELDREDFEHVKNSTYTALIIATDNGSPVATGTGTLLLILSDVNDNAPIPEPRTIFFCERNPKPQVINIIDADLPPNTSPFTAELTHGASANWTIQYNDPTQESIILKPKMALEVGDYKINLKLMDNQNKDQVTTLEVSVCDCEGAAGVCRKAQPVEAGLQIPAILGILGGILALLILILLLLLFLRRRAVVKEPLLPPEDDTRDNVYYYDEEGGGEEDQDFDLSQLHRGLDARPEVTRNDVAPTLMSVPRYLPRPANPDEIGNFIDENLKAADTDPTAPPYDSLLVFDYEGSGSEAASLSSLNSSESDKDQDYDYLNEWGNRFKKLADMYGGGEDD

[4] = tested on: SW480; assay: Inhibition of Wnt/beta-catenin transactivation signalling in human SW480 cells transfected with renilla luciferase and FOPFlash reporter gene at 1.56 uM incubated for 24 hrs by dual-luciferase assay (reference value: 100%); format: cell-based; details: values are per cent of control
[5] = tested on: SW480; assay: Inhibition of Wnt/beta-catenin transactivation signalling in human SW480 cells transfected with renilla luciferase and FOPFlash reporter gene at 3.125 uM incubated for 24 hrs by dual-luciferase assay (reference value: 100%); format: cell-based; details: values are per cent of control
[6] = tested on: SW480; assay: Inhibition of Wnt/beta-catenin transactivation signalling in human SW480 cells transfected with renilla luciferase and FOPFlash reporter gene at 6.25 uM incubated for 24 hrs by dual-luciferase assay (reference value: 100%); format: cell-based; details: values are per cent of control
[7] = species: Homo sapiens; assay: Selectivity ratio, ratio of IC50 for inhibition of Wnt/beta-catenin transactivation signalling in human HEK293 cells transfected with TOPFlash reporter gene to IC50 for inhibition of Wnt/beta-catenin D145A/E155A mutant transactivation signalling in human HEK293 cells transfected with TOPFlash reporter gene; format: cell-based
[8] = tested on: SW480; assay: Inhibition of Wnt/beta-catenin signaling pathway in human SW480 cells assessed as reduction in Axin2 level at 12.5 uM incubated for 24 hrs by qRT-PCR analysis (reference value: 100%); format: cell-based; details: values are per cent of control
[9] = tested on: SW480; assay: Inhibition of Wnt/beta-catenin signaling pathway in human SW480 cells assessed as reduction in BCL9L level at 12.5 uM incubated for 24 hrs by qRT-PCR analysis (reference value: 100%); format: cell-based; details: values are per cent of control
[10] = tested on: SW480; assay: Inhibition of Wnt/beta-catenin signaling pathway in human SW480 cells assessed as reduction in MMP7 level at 12.5 uM incubated for 24 hrs by qRT-PCR analysis (reference value: 100%); format: cell-based; details: values are per cent of control
[11] = tested on: SW480; assay: Inhibition of Wnt/beta-catenin signaling pathway in human SW480 cells assessed as reduction in HPRT level at 12.5 uM incubated for 24 hrs by qRT-PCR analysis (reference value: 100%); format: cell-based; details: values are per cent of control
[12] = tested on: SW480; assay: Inhibition of Wnt/beta-catenin signaling pathway in human SW480 cells assessed as reduction in Axin2 level at 1 to 12.5 uM incubated for 24 hrs by western blot analysis; format: cell-based; details: dose 1-12.5 µM
[13] = molecular target: T1, beta-catenin-B-cell lymphoma 9 protein complex (Homo sapiens); assay: Inhibition of full length wild type beta-catenin/N-terminal biotinylated human BCL9 HD2 (350 to 375 residues) protein-protein interaction in human SW480 cells at 1 to 10 uM incubated for 3 hr by immunoblot based pull-down assay; format: cell-based; details: dose 1-10 µM
[14] = tested on: SW480; assay: Inhibition of full length beta-catenin D145A mutant/N-terminal biotinylated human BCL9 HD2 (350 to 375 residues) protein-protein interaction in human SW480 cells at 1 to 10 uM incubated for 3 hr by immunoblot based pull-down assay; format: cell-based; details: dose 1-10 µM
[15] = tested on: SW480; assay: Inhibition of full length beta-catenin E155A mutant/N-terminal biotinylated human BCL9 HD2 (350 to 375 residues) protein-protein interaction in human SW480 cells at 1 to 10 uM incubated for 3 hr by immunoblot based pull-down assay; format: cell-based; details: dose 1-10 µM
[16] = molecular target: T2, beta-catenin-B-cell lymphoma 9 protein complex (Homo sapiens, UniProt P35222); assay: Inhibition of full length beta-catenin (1 to 781 residues) (unknown origin) expressed in Escherichia coli BL21 (DE3)/N-terminal biotinylated human BCL9 HD2 (350 to 375 residues) protein-protein interaction incubated for 1 hr by Alphascreen assay
T2 sequence (P35222 whole entry): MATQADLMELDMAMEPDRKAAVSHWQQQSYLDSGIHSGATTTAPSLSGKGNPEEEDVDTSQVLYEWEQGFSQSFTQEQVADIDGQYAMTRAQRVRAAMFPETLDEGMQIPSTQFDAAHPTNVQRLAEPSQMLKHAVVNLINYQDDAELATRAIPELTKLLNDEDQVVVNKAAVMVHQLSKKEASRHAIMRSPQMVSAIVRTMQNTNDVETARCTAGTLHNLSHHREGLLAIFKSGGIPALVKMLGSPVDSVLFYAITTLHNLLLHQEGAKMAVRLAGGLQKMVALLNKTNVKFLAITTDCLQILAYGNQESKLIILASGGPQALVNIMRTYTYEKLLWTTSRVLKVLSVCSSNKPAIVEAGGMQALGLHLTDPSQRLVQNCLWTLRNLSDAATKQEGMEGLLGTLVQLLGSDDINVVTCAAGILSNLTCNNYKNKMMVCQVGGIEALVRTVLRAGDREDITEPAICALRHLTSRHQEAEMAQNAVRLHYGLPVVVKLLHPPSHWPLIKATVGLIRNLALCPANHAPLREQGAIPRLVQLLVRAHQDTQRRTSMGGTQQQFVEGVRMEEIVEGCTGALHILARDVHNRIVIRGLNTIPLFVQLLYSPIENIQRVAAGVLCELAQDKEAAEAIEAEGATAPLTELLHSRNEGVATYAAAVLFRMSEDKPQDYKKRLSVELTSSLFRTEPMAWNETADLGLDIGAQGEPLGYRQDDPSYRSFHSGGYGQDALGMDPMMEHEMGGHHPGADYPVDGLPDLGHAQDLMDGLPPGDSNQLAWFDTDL
T2 sequence (O00512 whole entry): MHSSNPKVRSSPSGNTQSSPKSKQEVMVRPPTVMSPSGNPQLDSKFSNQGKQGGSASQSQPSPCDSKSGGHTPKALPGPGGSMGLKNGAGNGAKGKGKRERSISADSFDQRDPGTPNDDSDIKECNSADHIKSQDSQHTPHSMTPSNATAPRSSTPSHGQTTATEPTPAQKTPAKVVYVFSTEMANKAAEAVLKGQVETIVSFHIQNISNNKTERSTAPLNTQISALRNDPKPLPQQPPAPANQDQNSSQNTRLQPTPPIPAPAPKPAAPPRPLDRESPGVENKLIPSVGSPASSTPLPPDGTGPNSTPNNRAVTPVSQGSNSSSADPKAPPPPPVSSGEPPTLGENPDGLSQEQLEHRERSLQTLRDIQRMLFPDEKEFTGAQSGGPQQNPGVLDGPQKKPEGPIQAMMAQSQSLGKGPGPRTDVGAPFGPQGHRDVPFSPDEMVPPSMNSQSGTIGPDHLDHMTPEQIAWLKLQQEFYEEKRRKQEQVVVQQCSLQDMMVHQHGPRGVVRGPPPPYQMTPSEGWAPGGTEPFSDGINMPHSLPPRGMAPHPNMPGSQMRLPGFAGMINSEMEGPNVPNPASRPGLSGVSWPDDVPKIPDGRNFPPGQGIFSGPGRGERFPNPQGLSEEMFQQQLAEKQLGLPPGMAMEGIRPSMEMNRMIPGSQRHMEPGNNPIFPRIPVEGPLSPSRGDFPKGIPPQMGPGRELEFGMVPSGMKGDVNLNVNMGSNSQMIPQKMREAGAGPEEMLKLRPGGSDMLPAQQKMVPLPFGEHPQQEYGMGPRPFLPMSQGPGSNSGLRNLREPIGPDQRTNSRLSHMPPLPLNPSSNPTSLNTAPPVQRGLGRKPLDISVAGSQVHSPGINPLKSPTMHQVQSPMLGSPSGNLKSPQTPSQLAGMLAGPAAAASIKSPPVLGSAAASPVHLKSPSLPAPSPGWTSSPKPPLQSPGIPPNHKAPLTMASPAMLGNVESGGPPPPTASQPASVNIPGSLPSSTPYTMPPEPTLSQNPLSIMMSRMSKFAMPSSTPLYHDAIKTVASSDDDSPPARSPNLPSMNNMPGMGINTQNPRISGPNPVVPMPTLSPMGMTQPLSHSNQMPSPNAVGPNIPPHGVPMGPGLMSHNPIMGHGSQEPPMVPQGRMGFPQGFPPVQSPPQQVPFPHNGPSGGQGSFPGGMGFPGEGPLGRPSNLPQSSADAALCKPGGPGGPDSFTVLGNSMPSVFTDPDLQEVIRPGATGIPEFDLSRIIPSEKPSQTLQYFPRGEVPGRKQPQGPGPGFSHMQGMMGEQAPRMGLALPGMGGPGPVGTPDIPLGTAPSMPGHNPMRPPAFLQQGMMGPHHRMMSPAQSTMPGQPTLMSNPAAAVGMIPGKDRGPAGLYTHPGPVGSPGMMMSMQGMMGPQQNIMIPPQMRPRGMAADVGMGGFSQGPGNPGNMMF

[17] = molecular target: T2, beta-catenin-B-cell lymphoma 9 protein complex; assay: Inhibition of full length beta-catenin (1 to 781 residues) (unknown origin) expressed in Escherichia coli BL21 (DE3)/N-terminal biotinylated human BCL9 HD2 (350 to 375 residues) protein-protein interaction assessed as inhibition constant incubated for 1 hr by Alphascreen assay

IC50 [16]: 39 µM
Ki [17]: 35 µM
SMILES: O=C(c1ccc(O[C@H]2CCNC2)c(C2CCN(C(=O)C3CC3)CC2)c1)N1CCC(Oc2cc(F)cc(N3CCNCC3)c2)CC1

IC50 [16]: 6.2 µM
Ki [17]: 5 µM
SMILES: CC(C)(C)C1CCC(c2cc(C(=O)N3CCC(Oc4cc(N5CCNCC5)ccc4F)CC3)ccc2O[C@H]2CCNC2)CC1 (mixture of isomers)

IC50 [16]: 5.2 µM
Ki [17]: 4.4 µM
SMILES: CC(C)(C)C1CCC(c2cc(C(=O)N3CCC(Oc4cc(C#N)cc(N5CCNCC5)c4)CC3)ccc2O[C@H]2CCNC2)CC1 (mixture of isomers)

Further lines, the compound ahead of its results:

SMILES: CC(C)(C)C1CCC(c2cc(C(=O)N3CCC(Oc4cc(N5CCNCC5)ccc4C#N)CC3)ccc2O[C@H]2CCNC2)CC1 (mixture of isomers; cis)
Ratio Ki [1]: 20
inhibition [2]: Active
inhibition [3]: inactive
residual activity [4]: 100%
residual activity [5]: 104%
residual activity [6]: 96.5%
Ratio IC50 [7]: 4.2
response, % of control [8]: 9.28%
response, % of control [9]: 18.6%
response, % of control [10]: 41.8%
response, % of control [11]: 99.6%
inhibition [12]: Active

SMILES: CC(C)(C)C1CCC(c2cc(C(=O)N3CCC(Oc4cc(N5CCNCC5)ccc4C#N)CC3)ccc2O[C@@H]2CNC[C@H]2OCCOCCOCCNC(=O)CCCC[C@@H]2SC[C@@H]3NC(=O)N[C@@H]32)CC1 (mixture of isomers)
inhibition [13]: Active
inhibition [14]: inactive
inhibition [15]: inactive

SMILES: CC(C)(C)C1CCC(c2cc(C(=O)N3CCC(Oc4cc(N5CCNCC5)cc(C(F)(F)F)c4)CC3)ccc2O[C@H]2CCNC2)CC1 (some centres not stated)
IC50 [16]: 4.3 µM
Ki [17]: 3.6 µM

SMILES: O=C(c1ccc(O[C@H]2CCNC2)c(-c2ccc3ccccc3c2)c1)N1CCC(Oc2cc(F)cc(N3CCNCC3)c2)CC1
IC50 [16]: 4.6 µM
Ki [17]: 4.1 µM

SMILES: O=C(c1ccc(O[C@H]2CCNC2)c(-c2ccc3nc[nH]c3c2)c1)N1CCC(Oc2cc(F)cc(N3CCNCC3)c2)CC1
IC50 [16]: 48 µM
Ki [17]: 43 µM
